What was measured:
[1] = Pharmacokinetic study on Bioadhesive Composition in Beagle dogs; conditions: for half-life: t1/2, Beagle dogs;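 for all read-outs here: eight Beagle dogs (4 male, 4 female), five-period crossover with 3-day washouts, plasma levels quantified by validated LC-MS/MS, oral dosing after roughly 16 h fast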
Method: (§1) Eight Beagle dogs (4 male and 4 female) participated in the study. The study was preceded in five cross-over periods, separated by 3-day washout period. For oral administration, dogs were fasted about 16 hours prior to the dosing but had free access to water. […] Each oral dosing was administered with 20-30 mL of water. […] Blood samples were collected at pre-dose (0 min) and at 5, 10, 15, 30, 45 minutes; and at 1, 2, 3, 4, 6, 8, 12, 24 hours post-dose. After the plasma-separation process, the samples were analyzed by a validated LC-MS/MS method.

in vivo = conditions: both, beagle, dog, plasma, 1 mg
Method: as §1

[2] = Beagle dogs, analyte 7-OH Granisetron, IV Kytril® IV Infusion 1 mg
[3] = Beagle dogs, analyte 7-OH Granisetron, nasal GNS-B01 0.5 mg
[4] = Beagle dogs, analyte 7-OH Granisetron, nasal GNS-B01 1.0 mg
[5] = Beagle dogs, analyte 7-OH Granisetron, nasal GNS-B01 2 mg
[6] = Beagle dogs, analyte 7-OH Granisetron, oral Kytril® tablet 1 mg

## CN1[C@@H]2CCC[C@H]1C[C@H](NC(=O)c1nn(C)c3c(O)cccc13)C2 [7-OH Granisetron]
[1]; Beagle dogs
  amount of 7-OH Granisetron in plasma after oral dosing compared to intranasal administration: about twice as much
[1]; [2]
  AUC0-last: 1389 ± 465 ng·min/mL
  AUC0-∞: 1419 ± 470 ng·min/mL
  CL/F: 0.77 ± 0.25 L/min
  Cmax: 4.28 ± 1.20 ng/mL
  MRT: 4.95 ± 0.317 h
  Tmax: 0.813 ± 0.222 h
  t1/2: 4.6 ± 0.0033 h
[1]; [3]
  AUC0-last: 364 ± 263 ng·min/mL
  AUC0-∞: 386 ± 264 ng·min/mL
  CL/F: 2.98 ± 4.01 L/min
  MRT: 3.92 ± 0.817 h
  Tmax: 1 ± 0.423 h
  t1/2: 3.88 ± 1.2 h
[1]; [4]
  AUC0-last: 664 ± 520 ng·min/mL
  AUC0-∞: 691 ± 520 ng·min/mL
  CL/F: 2.70 ± 2.36 L/min
  Cmax: 2.18 ± 1.54 ng/mL
  MRT: 4.42 ± 0.8 h
  Tmax: 1.06 ± 0.395 h
  t1/2: 4.37 ± 0.783 h
[1]; [5]
  AUC0-last: 1549 ± 771 ng·min/mL
  AUC0-∞: 1609 ± 810 ng·min/mL
  CL/F: 1.50 ± 0.61 L/min
  Cmax: 4.56 ± 2.01 ng/mL
  MRT: 5.42 ± 0.35 h
  Tmax: 1.09 ± 0.597 h
  t1/2: 5.1 ± 0.55 h
[1]; [6]
  AUC0-last: 1197 ± 446 ng·min/mL
  AUC0-∞: 1246 ± 473 ng·min/mL
  CL/F: 0.90 ± 0.32 L/min
  Cmax: 5.73 ± 2.17 ng/mL
  MRT: 4.5 ± 0.683 h
  Tmax: 0.625 ± 0.267 h
  t1/2: 4.58 ± 1.02 h
[1]; Beagle dogs, analyte metabolite 7-OH Granisetron, nasal GNS-B01 0.5 mg granisetron
  Cmax: 1.26 ± 0.845 ng/mL

## CN1[C@@H]2CCC[C@H]1C[C@@H](NC(=O)c1nn(C)c3ccccc13)C2 [Granisetron, 1-methyl-N-((1R,3r,5S)-9-methyl-9-azabicyclo[3.3.1]nonan-3-yl)-1H-indazole-3-carboxamide, reference compound]
[1]; Beagle dogs, analyte Granisetron, nasal GNS-B01 0.5 mg/dog
  CL/F: 4.20 ± 4.35 L/min
[1]; Beagle dogs, analyte Granisetron, nasal GNS-B01 1.0 mg/dog
  CL/F: 4.26 ± 3.69 L/min
[1]; Beagle dogs, analyte Granisetron, nasal GNS-B01 2 mg/dog
  CL/F: 2.80 ± 2.18 L/min
[1]; both, beagle, dog, plasma, inhaled or intranasal, 0.5 mg, Tmax, Beagle dogs, analyte Granisetron, nasal GNS-B01 0.5 mg/dog
  Tmax: 0.448 h
[1]; both, beagle, dog, plasma, inhaled or intranasal, 0.5 mg, analyte Granisetron, nasal GNS-B01 0.5 mg/dog
  half-life: 0.997 ± 0.245 h
[1]; both, beagle, dog, plasma, inhaled or intranasal, 1 mg, Tmax (range), Beagle dogs, intranasal administration 1.0 mg/dog
  Tmax: 0.25 to 0.75 h
[1]; both, beagle, dog, plasma, inhaled or intranasal, 1 mg, Tmax, Beagle dogs, analyte Granisetron, nasal GNS-B01 1.0 mg/dog
  Tmax: 0.438 h
[1]; both, beagle, dog, plasma, inhaled or intranasal, 1 mg, analyte Granisetron, nasal GNS-B01 1.0 mg/dog
  half-life: ~1 h
[1]; both, beagle, dog, plasma, inhaled or intranasal, 2 mg, Tmax, Beagle dogs, analyte Granisetron, nasal GNS-B01 2 mg/dog
  Tmax: 0.397 h
[1]; both, beagle, dog, plasma, inhaled or intranasal, 2 mg, analyte Granisetron, nasal GNS-B01 2 mg/dog
  half-life: 1.3 ± 0.352 h
[1]; both, beagle, dog, plasma, po, 1 mg, Tmax (range), Beagle dogs, oral administration 1.0 mg/dog
  Tmax: 0.5 to 1 h
In vivo; iv
  AUC(0-t): 28.4 ng·h/mL
  MRT: 1.24 h
  half-life: 1.1 ± 0.178 h
In vivo; po
  MRT: 1.5 h
  Vd/F: 531 ± 234 L
  half-life: ~1 h

Source: patent US10335398B2 (MAXINASE LIFE SCIENCES LIMITED, priority 2015, dated 2019)
